Data taken from patent US8022239B2, “Mechanism-based inactivators of autotaxin” (The University of Memphis Research Foundation, priority 2008, dated 2011).

Target: T1, autotaxin (ATX) (Homo sapiens, UniProt Q13822)
T1 construct: concentrated conditioned serum-free medium (CCM) from MDA MB-435 cells as the source of ATX; endogenous in cells; host or cells: MDA-MB-435 cells (serum-free conditioned medium, concentrated ~10 fold)
Test: Autotaxin inactivation analysis: ATX-mediated hydrolysis of FS-3 (fluorescence), concentrated conditioned medium from MDA MB-435 cells as ATX source
Assay type: biochemical
Conditions: FS-3 substrate
Description: The test protocol was as follows:
MDA-MB-435 cells were cultured at 37° C. and 5% CO2 in Dulbecco's Modified Eagle Medium (DMEM) (MediaTech, Herndon, Va.) containing 5% fetal bovine serum (Hyclone, Logan, Utah), 100 U/ml penicillin, 100 μg/ml streptomycin (Hyclone, Logan, Utah) and 292 μg/ml L-glutamine (Hyclone, Logan, Utah). Cells were grown to ˜80% confluence at which time the cells were washed twice with sterile phosphate buffered saline prior to the addition of serum free DMEM containing L-glutamine. Conditioned medium was collected after 24-30 hours, supplemented with 20% ethylene glycol and was clarified by centrifugation at 3000×g and 4° C. for 10 min. The media was concentrated ˜10 fold and buffer exchanged into Tris (50 mM, pH 7.4) containing 20% ethylene glycol using an Amicon 8050 cell fitted with a PM30 filter (MILLIPORE®, Billerica, Mass.). Aliquots of concentrated conditioned media were stored at 4° C. until needed.
ATX inhibition was assayed using FS-3 (Echelon Biosciences, Inc., Salt Lake City, Utah, USA) as a substrate and ˜10 times concentrated conditioned serum-free medium (CCM) from MDA MB-435 cells as the source of ATX. Assays were performed in 96-well plates with CCM comprising one-third of the total volume and final FS-3 and charcoal-stripped fatty acid free BSA concentrations of 1 and 30 μM in assay buffer (1 mM each CaCl2 and MgCl2, 5 mM KCl, 140 mM NaCl, 50 mM Tris pH 8.0). Fluorescence was read at 5 minute intervals by a Synergy2 system (BioTek, Winooski, Vt.) with excitation and emission wavelengths of 485 and 538 nm, respectively. […] Fluorescence readings were normalized to vehicle control after subtraction of fluorescence in the absence of CCM. Data are shown as the mean±S.D. of at least three wells.

[1] = 3 uM, time 0 hour, low % response = effective inhibition

| Structure (SMILES) | Fluorescence (% Response) (30 uM, time 0 hour) | Fluorescence (% Response) (100 uM, time 0 hour) | Fluorescence (% Response) [1] | Fluorescence (% Response) (3 uM, time 1 hour) | Fluorescence (% Response) (3 uM, time 3 hours) | Fluorescence (% Response) (3 uM, time 6 hours) | Fluorescence (% Response) (30 uM, time 1 hour) | Fluorescence (% Response) (30 uM, time 3 hours) | Fluorescence (% Response) (30 uM, time 6 hours) |
| --- | --- | --- | --- | --- | --- | --- | --- | --- | --- |
| CCCCCCCCCCCCCCCCCCOP(=O)(O)Oc1ccc(C(F)F)cc1 [Example 1, (18:0)-p-difluorophosphodiester] | 96.1% | 94.1% |  |  |  |  |  |  |  |
| CCCCCCCCCCCCCCCCCCOP(=O)(O)Oc1ccc(CF)cc1 [Example 2, (18:0)-p-monofluorophosphodiester] | 57.3% |  | 83.3% | 47.9% | 28.1% | 25.0% | 35.4% | 9.4% | −2.1% |
| CCCCCCCCCCCCCCCCOP(=O)(O)Oc1ccc(C(F)F)cc1 [Example 3, (16:0)-p-difluorophosphodiester] | 71.9% |  | 94.8% | 60.4% | 44.8% | 34.4% | 37.5% | 19.0% |  |
| CCCCCCCCCCCCCCCCOP(=O)(O)Oc1ccc(CF)cc1 [Example 4, (16:0)-p-monofluorophosphodiester] | 26.0% |  | 81.3% | 50.0% | 33.3% | 21.9% | 12.5% | 5.2% | −2.1% |
| CCCCCCCCCCCCCCOP(=O)(O)Oc1ccc(C(F)F)cc1 [Example 5, (14:0)-p-difluorophosphodiester] | 24.5% |  | 92.5% | 57.1% | 42.7% | 31.2% | 14.3% | 12.9% | 9.6% |
| CCCCCCCCCCCCCCOP(=O)(O)Oc1ccc(CF)cc1 [Example 6, (14:0)-p-monofluorophosphodiester] | 48.9% |  | 95.9% | 61.9% | 45.7% | 32.7% | 31.3% | 25.0% | 18.5% |
| CCCCCCCCCCCCOP(=O)(O)Oc1ccc(C(F)F)cc1 [Example 7, (12:0)-p-difluorophosphodiester] | 52.0% |  | 93.9% | 64.5% | 48.3% | 37.0% | 36.2% | 29.4% | 24.9% |
| CCCCCCCCCCCCOP(=O)(O)Oc1ccc(CF)cc1 [Example 8, (12:0)-p-monofluorophosphodiester] | 89.1% |  | 99.4% | 70.0% | 52.2% | 40.6% | 63.0% | 48.4% | 37.7% |
| CCCCCCCCCCCCCCCCOP(=O)(O)Oc1ccccc1CF [Example 10, (16:0)-o-monofluorophosphodiester] | 0.4% |  | 86.6% | 29.3% | 10.6% | 4.7% | −16.8% | −18.7% | −17.0% |
